Measurements published in PubChem BioAssay (NCI).
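The concentration for 50% growth inhibition is given as GI50. TGI: total growth inhibition.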

Assays:
Assay in all cases: inhibition of tumour cell growth, NCI panel, 384-well format
[1] = test system: MALME-3M melanoma
[2] = test system: TK-10 renal
[3] = test system: K-562 leukemia
[4] = test system: M14 melanoma
[5] = test system: RPMI-8226 leukemia
[6] = test system: U251 glioblastoma
[7] = test system: UACC-62 melanoma
[8] = test system: UACC-257 melanoma
[9] = test system: NCI-H226 lung
[10] = test system: NCI-H23 lung
[11] = test system: LOX IMVI melanoma
[12] = test system: SF-295 CNS
[13] = test system: SK-MEL-28 melanoma
[14] = test system: COLO 205 colon
[15] = test system: SK-OV-3 ovarian
[16] = test system: UO-31 renal
[17] = test system: KM12 colon
[18] = test system: MOLT-4 leukemia
[19] = test system: MDA-MB-231 breast
[20] = test system: HCT-15 colon
[21] = test system: MCF7 breast
[22] = test system: RXF 393 renal
[23] = test system: T-47D breast
[24] = test system: SK-MEL-5 melanoma
[25] = test system: CCRF-CEM leukemia
[26] = test system: HL-60(TB) leukemia
[27] = test system: MDA-MB-435 melanoma
[28] = test system: HOP-92 NSCLC
[29] = test system: HS 578T breast
[30] = test system: IGROV1 ovarian
[31] = test system: HCC-2998 colon
[32] = test system: NCI-H322M lung
[33] = test system: HOP-62 NSCLC
[34] = test system: MDA-MB-468 breast
[35] = test system: SW-620 colon
[36] = test system: BT-549 breast
[37] = test system: HCT-116 colon
[38] = test system: EKVX NSCLC
[39] = test system: A498 renal
[40] = test system: DU-145 prostate
[41] = test system: SNB-75 CNS
[42] = test system: A549 NSCLC
[43] = test system: SF-268 CNS
[44] = test system: SN12C renal
[45] = test system: OVCAR-4 ovarian
[46] = test system: 786-0 renal
[47] = test system: CAKI-1 renal
[48] = test system: SNB-19 CNS
[49] = test system: NCI-H522 lung
[50] = test system: PC-3 prostate
[51] = test system: HT29 colon
[52] = test system: SF-539 CNS
[53] = test system: NCI/ADR-RES ovarian
[54] = test system: NCI-H460 NSCLC
[55] = test system: ACHN renal
[56] = test system: OVCAR-8 ovarian
[57] = test system: OVCAR-3 ovarian
[58] = test system: OVCAR-5 ovarian

NC(=O)/C(=C/n1cnc(-c2cc(C(F)(F)F)cc(C(F)(F)F)c2)n1)c1cncnc1
GI50 [1]: 32.2 nM | TGI [1]: 483 nM | GI50 [2]: 47.5 nM | TGI [2]: 1350 nM | GI50 [3]: 37.2 nM | TGI [3]: 1030 nM | GI50 [4]: 146 nM | TGI [4]: 485 nM | TGI [5]: 24.1 nM | GI50 [6]: 120 nM | TGI [6]: 785 nM | GI50 [7]: 57.2 nM | TGI [7]: 241 nM | GI50 [8]: 591 nM | TGI [8]: 2120 nM | GI50 [9]: 31.6 nM | TGI [9]: 400 nM | GI50 [10]: 71.3 nM | TGI [10]: 1120 nM | GI50 [11]: 144 nM | TGI [11]: 687 nM | GI50 [12]: 327 nM | TGI [12]: 2690 nM | GI50 [13]: 106 nM | TGI [13]: 372 nM | GI50 [14]: 44.1 nM | TGI [14]: 1740 nM | GI50 [15]: 92.2 nM | TGI [15]: 8970 nM | GI50 [16]: 269 nM | TGI [16]: 1570 nM | GI50 [17]: 191 nM | TGI [17]: 1930 nM | GI50 [18]: 14.5 nM | TGI [18]: 28.2 nM | GI50 [19]: 29.5 nM | TGI [19]: 253 nM | GI50 [20]: 92.7 nM | TGI [20]: 1180 nM | GI50 [21]: 47.8 nM | TGI [21]: 10900 nM | GI50 [22]: 24.4 nM | TGI [22]: 116 nM | GI50 [23]: 192 nM | TGI [23]: 1580 nM | GI50 [24]: 192 nM | TGI [24]: 1190 nM | GI50 [25]: 47.4 nM | TGI [25]: 188 nM | GI50 [26]: 15.3 nM | TGI [26]: 131 nM | GI50 [27]: 40.9 nM | TGI [27]: 170 nM | GI50 [28]: 438 nM | TGI [28]: 2060 nM | GI50 [29]: 33 nM | TGI [29]: 244 nM | GI50 [30]: 296 nM | TGI [30]: 2130 nM | GI50 [31]: 60.5 nM | TGI [31]: 287 nM | GI50 [32]: 297 nM | TGI [32]: 2900 nM | GI50 [33]: 229 nM | TGI [33]: 995 nM | GI50 [34]: 73 nM | TGI [34]: 247 nM | GI50 [35]: 41 nM | TGI [35]: 1410 nM | GI50 [36]: 12.1 nM | TGI [36]: 45.5 nM | GI50 [37]: 40.1 nM | TGI [37]: 232 nM | GI50 [38]: 591 nM | TGI [38]: 4140 nM | GI50 [39]: 42 nM | TGI [39]: 232 nM | GI50 [40]: 235 nM | TGI [40]: 3940 nM | GI50 [41]: 15.4 nM | TGI [41]: 41.9 nM | GI50 [42]: 196 nM | TGI [42]: 1640 nM | GI50 [43]: 26.7 nM | TGI [43]: 95.3 nM | GI50 [44]: 598 nM | TGI [44]: 2260 nM | GI50 [45]: 249 nM | TGI [45]: 780 nM | GI50 [46]: 50.4 nM | TGI [46]: 1220 nM | GI50 [47]: 22 nM | TGI [47]: 1340 nM | GI50 [48]: 188 nM | TGI [48]: 1880 nM | GI50 [49]: 24.9 nM | TGI [49]: 184 nM | GI50 [50]: 26.1 nM | TGI [50]: 110 nM | GI50 [51]: 65.6 nM | TGI [51]: 943 nM | GI50 [52]: 27.5 nM | TGI [52]: 84 nM | GI50 [53]: 222 nM | TGI [53]: 1680 nM | GI50 [54]: 29.6 nM | TGI [54]: 131 nM | GI50 [55]: 329 nM | TGI [55]: 2670 nM | GI50 [56]: 37.8 nM | TGI [56]: 1050 nM | GI50 [57]: 28 nM | TGI [57]: 171 nM

COc1cc2ncnc(Oc3cccc(NC(=O)Nc4cc(C(C)(C)C(F)(F)F)on4)c3)c2cc1OC
GI50 [1]: 14.6 nM | TGI [1]: 69.3 nM | GI50 [2]: 1690 nM | TGI [2]: 4030 nM | GI50 [4]: 19.3 nM | TGI [4]: 214 nM | GI50 [5]: 1760 nM | TGI [5]: 3140 nM | GI50 [6]: 1670 nM | TGI [6]: 3170 nM | GI50 [7]: 17.8 nM | TGI [7]: 267 nM | GI50 [8]: 57.5 nM | TGI [8]: 667 nM | GI50 [9]: 384 nM | TGI [9]: 7550 nM | GI50 [10]: 168 nM | TGI [10]: 1470 nM | GI50 [11]: 187 nM | TGI [11]: 1020 nM | GI50 [12]: 2060 nM | TGI [12]: 4520 nM | GI50 [13]: 35.1 nM | TGI [13]: 541 nM | GI50 [14]: 48.1 nM | TGI [14]: 1590 nM | GI50 [15]: 871 nM | TGI [15]: 3140 nM | GI50 [16]: 976 nM | TGI [16]: 3150 nM | GI50 [17]: 1920 nM | TGI [17]: 4430 nM | GI50 [18]: 1110 nM | TGI [18]: 2310 nM | GI50 [19]: 192 nM | TGI [19]: 3980 nM | GI50 [20]: 1860 nM | TGI [20]: 6280 nM | GI50 [21]: 1970 nM | TGI [21]: 7650 nM | GI50 [22]: 1540 nM | TGI [22]: 3440 nM | GI50 [23]: 1110 nM | TGI [23]: 3440 nM | GI50 [24]: 206 nM | TGI [24]: 1720 nM | GI50 [25]: 1450 nM | TGI [25]: 2770 nM | GI50 [26]: 309 nM | TGI [26]: 1750 nM | GI50 [27]: 118 nM | TGI [27]: 1940 nM | GI50 [28]: 1260 nM | TGI [28]: 2550 nM | GI50 [29]: 1540 nM | TGI [29]: 2990 nM | GI50 [30]: 222 nM | TGI [30]: 1270 nM | GI50 [31]: 1230 nM | TGI [31]: 2570 nM | GI50 [32]: 865 nM | TGI [32]: 5180 nM | GI50 [33]: 1530 nM | TGI [33]: 3010 nM | GI50 [34]: 747 nM | TGI [34]: 2310 nM | GI50 [35]: 1180 nM | TGI [35]: 3670 nM | GI50 [36]: 1660 nM | TGI [36]: 3080 nM | GI50 [37]: 581 nM | TGI [37]: 1970 nM | GI50 [38]: 1050 nM | TGI [38]: 3290 nM | GI50 [58]: 1080 nM | TGI [58]: 4570 nM | GI50 [39]: 810 nM | TGI [39]: 5310 nM | GI50 [40]: 2790 nM | TGI [40]: 11000 nM | GI50 [41]: 1860 nM | TGI [41]: 3950 nM | GI50 [42]: 1260 nM | TGI [42]: 5570 nM | GI50 [43]: 216 nM | TGI [43]: 1100 nM | GI50 [44]: 850 nM | TGI [44]: 3280 nM | GI50 [45]: 3140 nM | TGI [45]: 12400 nM | GI50 [46]: 1520 nM | TGI [46]: 3770 nM | GI50 [47]: 613 nM | TGI [47]: 3600 nM | GI50 [48]: 4200 nM | TGI [48]: 14000 nM | GI50 [49]: 242 nM | TGI [49]: 1610 nM | GI50 [50]: 2510 nM | TGI [50]: 5730 nM | GI50 [51]: 174 nM | TGI [51]: 1650 nM | GI50 [52]: 1350 nM | TGI [52]: 2780 nM | GI50 [53]: 2030 nM | TGI [53]: 4780 nM | GI50 [54]: 1540 nM | TGI [54]: 4460 nM | GI50 [55]: 399 nM | TGI [55]: 2390 nM | GI50 [56]: 2300 nM | TGI [56]: 9640 nM | GI50 [57]: 1750 nM | TGI [57]: 4600 nM
